Assay [1] deals with T1, DNA repair and recombination protein RAD54-like (Homo sapiens, UniProt Q92698).
T1 sequence (Q92698 whole entry): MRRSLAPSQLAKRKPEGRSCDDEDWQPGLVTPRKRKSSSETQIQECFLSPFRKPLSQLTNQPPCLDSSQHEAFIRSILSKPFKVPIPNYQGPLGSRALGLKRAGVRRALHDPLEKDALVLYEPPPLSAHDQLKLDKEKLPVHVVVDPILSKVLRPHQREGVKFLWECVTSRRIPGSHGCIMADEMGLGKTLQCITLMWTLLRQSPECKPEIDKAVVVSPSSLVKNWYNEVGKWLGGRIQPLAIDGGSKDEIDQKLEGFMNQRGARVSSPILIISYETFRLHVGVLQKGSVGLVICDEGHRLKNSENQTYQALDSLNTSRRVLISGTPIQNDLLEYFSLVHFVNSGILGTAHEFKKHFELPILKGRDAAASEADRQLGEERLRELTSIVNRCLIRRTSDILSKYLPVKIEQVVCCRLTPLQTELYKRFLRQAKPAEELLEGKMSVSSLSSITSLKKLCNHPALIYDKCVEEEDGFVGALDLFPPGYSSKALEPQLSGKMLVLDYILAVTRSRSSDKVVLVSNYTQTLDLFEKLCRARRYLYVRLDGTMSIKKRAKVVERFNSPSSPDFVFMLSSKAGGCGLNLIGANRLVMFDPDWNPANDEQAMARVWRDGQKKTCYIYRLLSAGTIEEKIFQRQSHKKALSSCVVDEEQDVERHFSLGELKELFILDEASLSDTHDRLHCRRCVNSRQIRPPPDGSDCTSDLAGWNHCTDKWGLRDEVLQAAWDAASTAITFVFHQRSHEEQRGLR
Briefly: inhibitors of human RAD54 branch migration, confirmation, biochemical, fluorescence, cherry-picked samples, dose series (AID 651657). The format is functional.

The nature of assay [2]: human group III sPLA2 inhibitors, dose response, biochemical, QFRET, IC50 (AID 743457).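 Further: green fluorescence rise as the enzyme cleaves BODIPY PC-A2 in liposomes; potency for inhibition of the enzyme.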
Assay [3] has as its target T2, Corticotropin-releasing factor receptor 2/Corticotropin-releasing factor-binding protein (Homo sapiens, UniProt P24387+Q13324).
T2 sequence (Q13324 whole entry): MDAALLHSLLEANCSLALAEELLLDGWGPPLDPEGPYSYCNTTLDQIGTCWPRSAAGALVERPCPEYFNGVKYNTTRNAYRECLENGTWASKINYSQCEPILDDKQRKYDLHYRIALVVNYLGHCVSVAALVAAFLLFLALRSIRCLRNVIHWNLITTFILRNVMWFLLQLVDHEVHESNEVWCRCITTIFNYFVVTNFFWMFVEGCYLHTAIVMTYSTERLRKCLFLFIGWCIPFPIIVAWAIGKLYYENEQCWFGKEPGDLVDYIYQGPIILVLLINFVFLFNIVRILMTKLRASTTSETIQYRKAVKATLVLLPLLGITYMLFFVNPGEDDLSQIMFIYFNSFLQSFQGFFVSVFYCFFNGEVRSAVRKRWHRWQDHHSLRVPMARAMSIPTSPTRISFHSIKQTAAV
T2 sequence (P24387 whole entry): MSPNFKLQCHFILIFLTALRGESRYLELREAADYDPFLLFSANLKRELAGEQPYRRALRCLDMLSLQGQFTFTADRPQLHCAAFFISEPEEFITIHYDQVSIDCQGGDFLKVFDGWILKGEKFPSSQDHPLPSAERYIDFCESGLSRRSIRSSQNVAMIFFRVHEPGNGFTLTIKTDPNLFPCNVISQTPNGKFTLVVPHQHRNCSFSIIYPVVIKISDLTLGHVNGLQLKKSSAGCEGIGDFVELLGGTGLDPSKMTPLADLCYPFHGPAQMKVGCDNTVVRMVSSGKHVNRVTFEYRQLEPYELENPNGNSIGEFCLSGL
The assay can be described thus: activators of CRF receptor 2 with binding protein – uHTS hits, confirmation (AID 602473). It is filed as functional. The following applies: read-out: EC50_Mean.

Assay [4] addresses T3, Fructose-bisphosphate aldolase (Mycobacterium tuberculosis, UniProt P9WQA3).
T3 sequence (P9WQA3 whole entry): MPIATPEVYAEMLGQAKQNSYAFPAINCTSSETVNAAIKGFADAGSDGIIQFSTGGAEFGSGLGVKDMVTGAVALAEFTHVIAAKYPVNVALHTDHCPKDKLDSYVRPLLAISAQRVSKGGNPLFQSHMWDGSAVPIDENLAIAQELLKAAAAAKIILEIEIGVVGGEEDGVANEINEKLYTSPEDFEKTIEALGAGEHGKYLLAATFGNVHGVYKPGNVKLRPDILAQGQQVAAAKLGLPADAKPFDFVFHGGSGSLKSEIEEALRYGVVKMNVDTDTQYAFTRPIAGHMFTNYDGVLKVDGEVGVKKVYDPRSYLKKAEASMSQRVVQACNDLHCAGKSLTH
Briefly: Fluorescence-based biochemical high throughput dose response assay for inhibitors of the fructose-bisphosphate aldolase (FBA) of M. tuberculosis. It is filed as functional.

A short description of assay [5]: Luminescence Cell-Based Dose Response HTS to Identify Inhibitors of 5'UTR Stem-Loop Driven Prion Protein mRNA Translation in H4 Neuroglioblastoma Cells. [Related pubchem assays: 1827 (Project Summary), 1813 (Primary HTS)]. It is filed as functional.
For assay [6], the target named is T4, Long-chain-fatty-acid--AMP ligase FadD28 (Mycobacterium tuberculosis, UniProt P9WQ59).
T4 sequence (P9WQ59 whole entry): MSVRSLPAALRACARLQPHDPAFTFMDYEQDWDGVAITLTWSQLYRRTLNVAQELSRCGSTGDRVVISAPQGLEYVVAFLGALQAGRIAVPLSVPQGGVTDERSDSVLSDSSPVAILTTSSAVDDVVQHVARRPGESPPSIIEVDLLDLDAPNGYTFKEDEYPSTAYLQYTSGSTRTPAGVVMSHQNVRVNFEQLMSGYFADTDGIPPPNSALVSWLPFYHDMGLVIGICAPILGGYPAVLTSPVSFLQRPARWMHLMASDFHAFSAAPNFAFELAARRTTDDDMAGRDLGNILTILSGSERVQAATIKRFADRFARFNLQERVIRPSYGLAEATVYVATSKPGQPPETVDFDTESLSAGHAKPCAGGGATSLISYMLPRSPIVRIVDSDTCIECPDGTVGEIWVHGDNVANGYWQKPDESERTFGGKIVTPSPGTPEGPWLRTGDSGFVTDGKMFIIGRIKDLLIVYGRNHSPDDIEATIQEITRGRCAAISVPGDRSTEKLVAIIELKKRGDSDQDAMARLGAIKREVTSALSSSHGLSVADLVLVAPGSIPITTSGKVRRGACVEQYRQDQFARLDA
The assay can be described thus: Fluorescence polarization aasay to screen for inhibitors that compete for the binding of FadD28 to a bisubstrate Measured in Biochemical System Using Plate Reader - 2147-01_Inhibitor_Dose_CherryPick_Activity. It is filed as functional, Mycobacterium tuberculosis H37Rv. (In general: In fluorescence polarisation assays a small probe gives low polarisation when free and higher when bound to something large.)

Assay [7] is described as follows: inhibitors of firefly luciferase expression or activity, dose response, H4 neuroglioma cells, luminescence (AID 1990). The format is functional, cell-based.
Assay [8] can be described thus: NIH:OVCAR-3 ovarian cancer cell cytotoxicity, dose response, PAX8 inhibitor project, plate reader, dry powder samples (AID 743044). The format is functional, cell-based.
Assay [9] in a line: cytotoxicity in OVCAR8 ovarian cancer cells, dose response, PAX8 project, cell-based, plate reader, dry powder samples (AID 743197). The format is functional. The following applies: OVCAR-8.
For assay [10], the target named is Paired box protein Pax-8 (Homo sapiens, UniProt Q06710). Briefly: inhibitors of PAX8-driven TPO luciferase reporter, dose response, RMG-I cells, cherry-pick (AID 687027).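 Further: luciferase reporter driven by Pax8 target thyroperoxidase promoter measured by SteadyGlo luminescence.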 The format is functional, cell-based.
The nature of assay [11]: intracellular Trypanosoma cruzi inhibitors in host cells – cell-based, plate reader, cherry-pick samples, set 3, dose response (AID 651818).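 Further: compounds incubated with infected cells for about four days.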 It is filed as functional.
Assay [12] can be described thus: HEK293T cytotoxicity, dose response, cytotoxicity control for miR-122 modulator project, cell-based, inhibitor set, cherry-pick, set 2 (AID 720697). It is filed as functional.
Assay [13] in a line: HEK293T cytotoxicity, dose response, cytotoxicity control for miR-122 modulator project, cell-based, activator set, cherry-pick (AID 720690).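 Further: HEK293T human cells scored for general mammalian cytotoxicity.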 It is filed as functional.

Activity calls are given as the source filed them. Bounds are passed on as bounds.

Broadly, the AC50 is the midpoint of the concentration-response curve, whichever way the signal moves. Usually IC50 stands for the concentration that gives 50% inhibition.

Sequence of Paired box protein Pax-8 (Q06710 whole entry): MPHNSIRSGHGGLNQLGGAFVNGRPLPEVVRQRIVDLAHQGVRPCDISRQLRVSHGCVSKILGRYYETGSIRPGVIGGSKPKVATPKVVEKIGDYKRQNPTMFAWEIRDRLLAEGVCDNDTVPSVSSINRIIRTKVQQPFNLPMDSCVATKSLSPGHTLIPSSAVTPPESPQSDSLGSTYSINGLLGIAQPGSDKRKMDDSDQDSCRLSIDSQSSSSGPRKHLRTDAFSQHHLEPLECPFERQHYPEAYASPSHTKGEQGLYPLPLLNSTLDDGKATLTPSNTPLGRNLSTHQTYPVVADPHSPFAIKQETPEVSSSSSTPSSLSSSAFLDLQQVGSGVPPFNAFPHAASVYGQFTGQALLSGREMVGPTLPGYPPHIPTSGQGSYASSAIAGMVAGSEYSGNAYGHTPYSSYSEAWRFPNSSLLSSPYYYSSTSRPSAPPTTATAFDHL

Turning to `Cc1nc2ccccc2c2oc(C(=O)NCCN3CCCCC3C)cc12` (stereo unspecified), the half-maximal activity concentration (AC50) in [1] is 35.2 µM (active). As to `CC(C)CC(=O)NC(=S)NNC(=O)c1cccc([N+](=O)[O-])c1`, the IC50 in assay [2] was > 122 µM (inactive). Also, the EC50 in assay [3] was > 53 µM (inactive).

With `CCCCN=C(S)N(CCN(CC)CC)Cc1cc2cc3c(cc2nc1O)OCO3`, the IC50 in assay [4] was 2.44 µM (active).

As for `CC1(C)Oc2cc3oc(-c4cc(O)cc(O)c4)cc3cc2CC1O` (stereo not drawn) [(+/-)-MORACIN P], the EC50 in [5] was 11.1 µM (active); in assay [7], 4.04 µM (inconclusive). The AC50 in [6] is 65.8 µM (active). As for `NS(=O)(=O)c1ccc(CNC(=O)C(Cc2ccccc2)NS(=O)(=O)c2ccccc2F)cc1` (stereo unspecified), the concentration at half-maximal activity (AC50) in assay [6] was 39.3 µM (active). Same read-out and setting: for `CCCCCC1C(=O)N2C=C(c3ccccc3)c3ccccc3N2C1=O` (stereo unspecified) [CINTAZONE] the value was 67.3 µM (active).

On to `Cc1noc(C)c1S(=O)(=O)Nc1ccc2c(c1)C(=O)N([C@H](C)CO)C[C@@H](C)[C@H](CN(C)C(=O)Nc1ccc(C(F)(F)F)cc1)OCCCC[C@@H](C)O2`, for which the AC50 in assay [8] was 26.7 µM (active); in assay [9], 38.2 µM (active); in assay [10], 7.41 µM (active). `C[C@@H]1CN([C@@H](C)CO)C(=O)c2cc(NC(=O)Nc3ccc(C(F)(F)F)cc3)ccc2O[C@@H]1CN(C)CC1CCCCC1`: the AC50 in assay [11] is 5.59 µM (active); in [12], 4.35 µM (active); in [13] it was 19.1 µM (active).

Regarding `CC1CCN(CCCNC(=O)c2cc3c(=O)n(C)c4ccccc4c3n2C)CC1`, in assay [1], the half-maximal activity concentration (AC50) was 27.8 µM (active).
